Experimental data taken from patent publication US4533553A, “Polycyclic ether antibiotic” (priority 1983, dated 1985).

Assays:
Eimeria acervulina = assay: efficacy against coccidial infections in chickens; type: in vivo; details: for Weight Gain / Average degree of Infection: five days; for Average degree of Infection: lesion score 0 to 3; for Ratio: lesion score treated / infected control
Description: (§1) Efficacy data for Antibiotic Compound 53,607 and its salts against coccidial infections in chickens was obtained in the following fashion. Groups of 3-5 ten-day old SPF white leghorn cockerel chicks were fed a mash diet containing Antibiotic Compound 53,607 or its sodium and/or potassium salt uniformly dispersed therein. After being on this ration for 24 hours each chick was inoculated per os with oocysts of the particular species of Eimeria being tested. Other groups of 3-5 ten-day old chicks were fed a similar mash diet free of Antibiotic Compound 53,607 or its salts. They were also infected after 24 hours and served as infected controls. Yet other groups of 3-5 ten-day old chicks were fed the mash diet free of Antibiotic Compound 53,607 and were not infected with coccidia. These served as normal controls. The results of treatment were evaluated after five days in the case of E. acervulina, and six days for all other challenges.
(§2) ^1 The criteria used to measure anticoccidial activity consisted of
(§3) lesion scores of 0 to 4 for E. tenella after J. E. Lynch "A New Method fo
(§4) the Primary Evaluation of Anticoccidial Activity." , Am. J. Vet. Res.
(§5) 22:324-326 (1961); and 0 to 3 for the other species based on modification
(§6) of the scoring system devised by J. Johnson and W. H. Reid, "Anticoccidia
(§7) drugs. Lesion Scoring Techniques in Battery and Floor Pen Experiments in
(§8) Chicks.", Exp. Parasit. 28: 30-36(1970). A constant ratio was established
(§9) by dividing the lesion score of each treated group by the lesion score of […]

Eimeria brunetti = assay: efficacy against coccidial infections in chickens; type: in vivo; details: for Average degree of Infection: lesion score 0 to 3; for Average degree of Infection / Weight Gain: six days; for Ratio: lesion score treated / infected control
Description: as §1, §2, §3, §4, §5, §6, §7, §8, §9

Eimeria maxima = assay: efficacy against coccidial infections in chickens; type: in vivo; details: for Average degree of Infection: lesion score 0 to 3; for Average degree of Infection / Weight Gain: six days; for Ratio: lesion score treated / infected control
Description: as §1, §2, §3, §4, §5, §6, §7, §8, §9

Eimeria necatrix = assay: efficacy against coccidial infections in chickens; type: in vivo; details: for Average degree of Infection: lesion score 0 to 3; for Average degree of Infection / Weight Gain: six days; for Ratio: lesion score treated / infected control
Description: as §1, §2, §3, §4, §5, §6, §7, §8, §9

Eimeria tenella = assay: efficacy against coccidial infections in chickens; type: in vivo; details: for Average degree of Infection: lesion score 0 to 4
Description: as §1, §2, §3, §4, §5, §6, §7, §8, §9

rumen fluid = assay: in vitro rumen technique, propionic acid production; design: species or system cow; details: for increase in propionic acid: comparison with Salinomycin
Description: The value of animal feeds generally has been determined directly by feeding the animal. British Patent Specification No. 1,197,826 details an in vitro rumen technique whereby the changes occurring in feeds brought about by microorganisms are measured more readily and with great accuracy in the evaluation of animal feeds. This technique involves the use of an apparatus in which the digestive processes of the animals are conducted and studied in vitro. The animal feeds, rumen inoculum and various growth promotants are introduced into and withdrawn from a laboratory unit under carefully controlled conditions and the changes taken place are studied critically and progressively during the consumption of the feed by the microorganisms. […] The change in propionic acid content is expressed as percent of the propionic acid content found in the control rumen fluid. Long term in vivo feeding studies are used to show a reliable correlation between propionic acid increase in the rumen fluid and improved animal performance.
Rumen fluid is collected from a fistulated cow which is fed on a commercial fattening ration plus hay. The rumen fluid is immediately filtered through cheese cloth, and 10 ml added to a 50 ml conical flask containing 400 mg. of standard substrate (68% corn starch+17% cellulose+15% extracted soybean meal), 10 ml. of a pH 6.8 buffer and the test compound. The flasks are gassed with oxygen free nitrogen for about two minutes, and incubated in a shaking water bath at 39° C. for about 16 hours. All tests are conducted in triplicate.
After incubation, 5 ml. of the sample is mixed with 1 ml. of 25% metaphosphoric acid. After 10 minutes 0.25 ml. of formic acid is added and the mixture centrifuged at 1,500 r.p.m. for 10 minutes. Samples are then analyzed by gas-liquid chromatograhy by the method of D. W. Kellog, J. Dairy Science, 52, 1690 (1969). Peak heights for acetic, propionic and butyric acids are determined for samples from untreated and treated incubation flasks.

solubility = type: physicochemical
[1] = system: Gram-positive microorganisms; assay: inhibitory action against growth of Gram-positive microorganisms; type: cell-based; details: in vitro
Description: In Table I, below, the results of in vitro MIC tests are summarized. For this test each organism is inoculated in a series of test tubes containing nutrient medium and varying concentrations of Compound 53,607 to determine the minimal concentration of the antibiotic in mcg/ml which inhibits the growth of the organism over a period of 24 hours (MIC).

[2] = system: coccidial infections in poultry; assay: activity against coccidial infections in poultry; type: in vivo
Description: as §1

[3] = 25 ppm in diet, value in parentheses (not explained)
[4] = 50 ppm in diet, value in parentheses (not explained)
[5] = 100 ppm in diet, value in parentheses (not explained)

CC(=CC(C)C1OC2(CCC(C)(C3CCC(C)C4(OC(C5OC(O)(CO)C(C)CC5C)CC4C)O3)O2)CC(O)C1C)C(=O)C(C)CC(C)C(=O)O (stereo not drawn) [Antibiotic Compound 53,607]
Weight Gain (Eimeria acervulina; 25 ppm in diet): 7%
Average degree of Infection (Eimeria acervulina; 25 ppm in diet): 2.0
Ratio (Eimeria acervulina; 25 ppm in diet): 1.00
Weight Gain (Eimeria acervulina; 50 ppm in diet): 18%
Average degree of Infection (Eimeria acervulina; 50 ppm in diet): 2.0
Ratio (Eimeria acervulina; 50 ppm in diet): 1.00
Weight Gain (Eimeria acervulina; 100 ppm in diet): 22%
Average degree of Infection (Eimeria acervulina; 100 ppm in diet): 1.2
Ratio (Eimeria acervulina; 100 ppm in diet): 0.60
Weight Gain (Eimeria acervulina; 200 ppm in diet): 2%
Average degree of Infection (Eimeria acervulina; 200 ppm in diet): 1.5
Ratio (Eimeria acervulina; 200 ppm in diet): 0.75
controlling infections (Eimeria acervulina; chickens, diet, 50 to 200 ppm): effective in controlling infections
Average degree of Infection (Eimeria brunetti; 25 ppm in diet): 2.6
Ratio (Eimeria brunetti; 25 ppm in diet): 1.44
Weight Gain (Eimeria brunetti; 25 ppm in diet): 47%
Average degree of Infection (Eimeria brunetti; 50 ppm in diet): 1.0
Ratio (Eimeria brunetti; 50 ppm in diet): 0.55
Weight Gain (Eimeria brunetti; 50 ppm in diet): 49%
Average degree of Infection (Eimeria brunetti; 100 ppm in diet): 0.4
Ratio (Eimeria brunetti; 100 ppm in diet): 0.22
Weight Gain (Eimeria brunetti; 100 ppm in diet): 47%
controlling infections (Eimeria brunetti; chickens, diet, 50 to 200 ppm): effective in controlling infections
Average degree of Infection (Eimeria maxima; 25 ppm in diet): 1.4
Ratio (Eimeria maxima; 25 ppm in diet): 0.88
Weight Gain (Eimeria maxima; 25 ppm in diet): 51%
Average degree of Infection (Eimeria maxima; 50 ppm in diet): 1.0
Ratio (Eimeria maxima; 50 ppm in diet): 0.63
Weight Gain (Eimeria maxima; 50 ppm in diet): 70%
Average degree of Infection (Eimeria maxima; 100 ppm in diet): 0.8
Ratio (Eimeria maxima; 100 ppm in diet): 0.50
Weight Gain (Eimeria maxima; 100 ppm in diet): 37%
Average degree of Infection (Eimeria maxima; 200 ppm in diet): 1.5
Ratio (Eimeria maxima; 200 ppm in diet): 0.94
Weight Gain (Eimeria maxima; 200 ppm in diet): 10%
controlling infections (Eimeria maxima; chickens, diet, 50 to 200 ppm): effective in controlling infections
Average degree of Infection (Eimeria necatrix; 25 ppm in diet): 0.6
Ratio (Eimeria necatrix; 25 ppm in diet): 0.33
Weight Gain (Eimeria necatrix; 25 ppm in diet): 111%
Average degree of Infection (Eimeria necatrix; 50 ppm in diet): 0.2
Ratio (Eimeria necatrix; 50 ppm in diet): 0.11
Weight Gain (Eimeria necatrix; 50 ppm in diet): 99%
Average degree of Infection (Eimeria necatrix; 100 ppm in diet): 0.0
Ratio (Eimeria necatrix; 100 ppm in diet): 0.00
Weight Gain (Eimeria necatrix; 100 ppm in diet): 69%
controlling infections (Eimeria necatrix; chickens, diet, 50 to 200 ppm): effective in controlling infections
Average degree of Infection (Eimeria tenella; 25 ppm in diet, six days): 3.0
Ratio (Eimeria tenella; 25 ppm in diet, lesion score treated / infected control): 0.95
Weight Gain (Eimeria tenella; 25 ppm in diet, six days): 47%
Ratio (Eimeria tenella; [3]): 0.49
Weight Gain (Eimeria tenella; [3]): 102%
Average degree of Infection (Eimeria tenella; [3]): 1.7
Average degree of Infection (Eimeria tenella; 50 ppm in diet, six days): 2.7
Ratio (Eimeria tenella; 50 ppm in diet, lesion score treated / infected control): 0.86
Weight Gain (Eimeria tenella; 50 ppm in diet, six days): 22%
Ratio (Eimeria tenella; [4]): 0.09
Weight Gain (Eimeria tenella; [4]): 97%
Average degree of Infection (Eimeria tenella; [4]): 0.3
Average degree of Infection (Eimeria tenella; 100 ppm in diet, six days): 1.0
Ratio (Eimeria tenella; 100 ppm in diet, lesion score treated / infected control): 0.32
Weight Gain (Eimeria tenella; 100 ppm in diet, six days): 57%
Ratio (Eimeria tenella; [5]): 0.37
Weight Gain (Eimeria tenella; [5]): 60%
Average degree of Infection (Eimeria tenella; [5]): 1.3
Average degree of Infection (Eimeria tenella; 200 ppm in diet, six days): 1.3
Ratio (Eimeria tenella; 200 ppm in diet, lesion score treated / infected control): 0.41
Weight Gain (Eimeria tenella; 200 ppm in diet, six days): 37%
controlling infections (Eimeria tenella; chickens, diet, 50 to 200 ppm): effective in controlling infections
increase in propionic acid (rumen fluid; 5 μg./ml.): about 40%
increase in propionic acid (rumen fluid; 20 μg./ml.): about 43%
increase in the production of propionic acid over control (rumen fluid; 20 micrograms per milliliter, first comparison (with Monensin)): about 57%
solubility in chloroform (solubility; chloroform): soluble
solubility in ethyl acetate (solubility; ethyl acetate): soluble
solubility in methanol (solubility; methanol): soluble
solubility in methylisobutyl ketone (solubility; methylisobutyl ketone): soluble
solubility in water (solubility; water): insoluble
inhibitory action against growth [1]: exhibits inhibitory action
activity against coccidial infections in poultry [2]: excellent activity
